According to US20250154173A1 (Merck Sharp & Dohme LLC, priority 2023, published 2025):

Biological target: T1, GST-RIPK1 (recombinant GST-RIPK1 kinase domain (residues 1-327)) (Homo sapiens, UniProt Q13546)
T1 construct: recombinant GST-RIPK1 kinase domain (residues 1-327) enzyme produced from baculovirus-transfected Sf21 cells; host or cells: baculovirus-transfected Sf21 insect cells
T1 sequence (Q13546 1-327): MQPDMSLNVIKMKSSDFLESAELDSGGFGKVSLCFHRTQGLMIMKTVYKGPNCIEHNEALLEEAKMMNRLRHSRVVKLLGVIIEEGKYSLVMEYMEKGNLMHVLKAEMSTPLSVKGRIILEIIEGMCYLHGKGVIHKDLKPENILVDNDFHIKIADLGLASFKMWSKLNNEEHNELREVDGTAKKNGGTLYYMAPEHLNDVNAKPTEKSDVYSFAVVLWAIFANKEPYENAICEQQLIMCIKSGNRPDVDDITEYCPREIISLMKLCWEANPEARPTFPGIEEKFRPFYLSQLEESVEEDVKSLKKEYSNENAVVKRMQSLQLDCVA
Test: RIPK1-ADP-Glo Enzymatic Assay
Type: biochemical
Conditions: ten-point titration, top compound concentration of 100000 nM; 25 nM GST-RIPK1, 300 μM ATP, 3 μM dephosphorylated-MBP; 30 min pre-incubation, 150 min reaction
Summary of the method: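 ADP-Glo luminescence quantifies ADP formed over 150 minutes by 25 nM Sf21-produced GST-RIPK1 (1-327) using 300 μM ATP and 3 μM dephosphorylated MBP, following 30-minute compound preincubation at 1% DMSO. Ten-point 1:3 series from 100000 nM gave EC50 via four-parameter sigmoidal regression.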

SMILES	EC50 [nM]
O=C1N2[C@@H](CC[C@H]2c2ccc(F)cc2)O[C@]12C[C@H](Oc1cc(-c3nn[nH]n3)ccn1)C2 [Example 10.7, (1r,3R,5′S,7a′R)-3-((4-(2H-tetrazol-5-yl)pyridin-2-yl)oxy)-5′-(4-fluorophenyl)tetrahydro-3′H-spiro[cyclobutane-1,2′-pyrrolo[2,1-b]oxazol]-3′-one]	27
O=C1N2[C@@H](CC[C@H]2c2cc(F)cc(F)c2)O[C@]12C[C@H](Oc1ncnn3c(Br)ccc13)C2 [Example 11.1, (1r,3R,5′S,7a′R)-3-((7-bromopyrrolo[2,1-f][1,2,4]triazin-4-yl)oxy)-5′-(3,5-difluorophenyl)tetrahydro-3′H-spiro[cyclobutane-1,2′-pyrrolo[2,1-b]oxazol]-3′-one]	12
N#Cc1ccc2c(O[C@H]3C[C@@]4(C3)O[C@@H]3CC[C@@H](c5cc(F)cc(F)c5)N3C4=O)ncnn12 [Example 11.2, 4-(((1r,3R,5′S,7a′R)-5′-(3,5-difluorophenyl)-3′-oxotetrahydro-3′H-spiro[cyclobutane-1,2′-pyrrolo[2,1-b]oxazol]-3-yl)oxy)pyrrolo[2,1-f][1,2,4]triazine-7-carbonitrile]	16
N#Cc1ccc2c(O[C@H]3C[C@@]4(C3)O[C@@H]3CC[C@@H](c5ccc(F)cc5)N3C4=O)ncnn12 [Example 11.3, 4-(((1r,3R,5′S,7a′R)-5′-(4-fluorophenyl)-3′-oxotetrahydro-3′H-spiro[cyclobutane-1,2′-pyrrolo[2,1-b]oxazol]-3-yl)oxy)pyrrolo[2,1-f][1,2,4]triazine-7-carbonitrile]	19
O=C1N2[C@@H](CC[C@H]2c2cnccn2)OC12CC(Oc1cc(F)ccc1F)C2 (stereo partly drawn) [Example 12.6, (5′S,7a′R)-3-(2,5-difluorophenoxy)-5′-(pyrazin-2-yl)tetrahydro-3′H-spiro[cyclobutane-1,2′-pyrrolo[2,1-b][1,3]oxazol]-3′-one]	16
O=C(O[C@H]1C[C@@]2(C1)O[C@@H]1CC[C@@H](c3cc(F)cc(F)c3)N1C2=O)c1ccccn1 [Example 13, (1r,3R,5′S,7a′R)-5′-(3,5-difluorophenyl)-3′-oxotetrahydro-3′H-spiro[cyclobutane-1,2′-pyrrolo[2,1-b]oxazol]-3-yl picolinate]	165
O=C(O[C@H]1C[C@@]2(C1)O[C@@H]1CC[C@@H](c3cc(F)cc(F)c3)N1C2=O)c1ccccc1 [Example 14, (1r,3R,5′S,7a′R)-5′-(3,5-difluorophenyl)-3′-oxotetrahydro-3′H-spiro[cyclobutane-1,2′-pyrrolo[2,1-b]oxazol]-3-yl benzoate]	13
O=C1N2[C@@H](CC[C@H]2c2cnccn2)O[C@]12C[C@@H](OCc1cccnc1)C2 [Example 18.1, (1S,3S,5′S,7a′R)-5′-(pyrazin-2-yl)-3-(pyridin-3-ylmethoxy)tetrahydro-3′H-spiro[cyclobutane-1,2′-pyrrolo[2,1-b]oxazol]-3′-one]	100
O=C1N2C(CC[C@H]2c2cnccn2)OC12CC(OCc1cnc3nncn3c1)C2 (stereo partly drawn) [Example 18.2, (5′S)-5′-(pyrazin-2-yl)-3-[([1,2,4]triazolo[4,3-a]pyrimidin-6-yl)methoxy]tetrahydro-3′H-spiro[cyclobutane-1,2′-pyrrolo[2,1-b][1,3]oxazol]-3′-one]	66
O=C1N2C(CC[C@H]2c2cnccn2)OC12CC(OCc1cnn(C3CC3)c1)C2 (stereo partly drawn) [Example 18.3, (5′S)-3-[(1-cyclopropyl-1H-pyrazol-4-yl)methoxy]-5′-(pyrazin-2-yl)tetrahydro-3′H-spiro[cyclobutane-1,2′-pyrrolo [2,1-b][1,3]oxazol]-3′-one]	969
O=C1N2C(CC[C@H]2c2cnccn2)OC12CC(OCc1cnn3cccnc13)C2 (stereo partly drawn) [Example 18.4, (5′S)-5′-(pyrazin-2-yl)-3-[(pyrazolo[1,5-a]pyrimidin-3-yl)methoxy]tetrahydro-3′H-spiro[cyclobutane-1,2′-pyrrolo[2,1-b][1,3]oxazol]-3′-one]	45
Cn1cc(COC2CC3(C2)OC2CC[C@@H](c4cnccn4)N2C3=O)cn1 (stereo partly drawn) [Example 18.5, (5′S)-3-[(1-methyl-1H-pyrazol-4-yl)methoxy]-5′-(pyrazin-2-yl)tetrahydro-3′H-spiro[cyclobutane-1,2′-pyrrolo[2,1-b][1,3]oxazol]-3′-one]	307
O=C1N2[C@@H](CC[C@H]2c2cnccn2)OC12CC(OCc1cnn(C34CC(C3)C4)c1)C2 (stereo partly drawn) [Example 18.6, (5′S, 7a′R)-3-{[1-(bicyclo[1.1.1]pentan-1-yl)-1H-pyrazol-4-yl]methoxy}-5′-(pyrazin-2-yl)tetrahydro-3′H-spiro[cyclobutane-1,2′-pyrrolo[2,1-b][1,3]oxazol]-3′-one]	365
O=C1N2C(CC[C@H]2c2cnccn2)OC12CC(OCc1cnn(-c3ccccc3)c1)C2 (stereo partly drawn) [Example 18.7, (5′S)-3-[(1-phenyl-1H-pyrazol-4-yl)methoxy]-5′-(pyrazin-2-yl)tetrahydro-3′H-spiro[cyclobutane-1,2′-pyrrolo [2,1-b][1,3]oxazol]-3′-one]	52
CCOc1ncc(COC2CC3(C2)OC2CC[C@@H](c4cnccn4)N2C3=O)cn1 (stereo partly drawn) [Example 18.8, (5′S)-3-[(2-ethoxypyrimidin-5-yl)methoxy]-5′-(pyrazin-2-yl)tetrahydro-3′H-spiro[cyclobutane-1,2′-pyrrolo[2,1-b][1,3]oxazol]-3′-one]	466
O=C1N2C(CC[C@H]2c2cnccn2)OC12CC(OCc1cccc(CCn3cnnc3)c1)C2 (stereo partly drawn) [Example 18.9, (5′S)-5′-(pyrazin-2-yl)-3-({3-[2-(4H-1,2,4-triazol-4-yl)ethyl]phenyl}methoxy)tetrahydro-3′H-spiro[cyclobutane-1,2′-pyrrolo[2,1-b][1,3]oxazol]-3′-one]	100
N#CCc1cccc(COC2CC3(C2)OC2CC[C@@H](c4cnccn4)N2C3=O)c1 (stereo partly drawn) [Example 18.10, [3-({[(5′S)-3′-oxo-5′-(pyrazin-2-yl)tetrahydro-3′H-spiro[cyclobutane-1,2′-pyrrolo[2,1-b][1,3]oxazol]-3-yl]oxy}methyl)phenyl]acetonitrile]	12
O=C1N2C(CC[C@H]2c2cnccn2)OC12CC(OCc1ccc(C(F)F)cn1)C2 (stereo partly drawn) [Example 18.11, (5′S)-3-{[5-(difluoromethyl)pyridin-2-yl]methoxy}-5′-(pyrazin-2-yl)tetrahydro-3′H-spiro[cyclobutane-1,2′-pyrrolo[2,1-b][1,3]oxazol]-3′-one]	89
O=C1N2C(CC[C@H]2c2cnccn2)OC12CC(OCc1nnc(Cc3ccccc3)s1)C2 (stereo partly drawn) [Example 18.12, (5′S)-3-[(5-benzyl-1,3,4-thiadiazol-2-yl)methoxy]-5′-(pyrazin-2-yl)tetrahydro-3′H-spiro[cyclobutane-1,2′-pyrrolo[2,1-b][1,3]oxazol]-3′-one]	181
CCC(C)Oc1cccc(COC2CC3(C2)OC2CC[C@@H](c4cnccn4)N2C3=O)n1 (stereo partly drawn) [Example 18.13, (5′S)-3-({6-[(butan-2-yl)oxy]pyridin-2-yl}methoxy)-5′-(pyrazin-2-yl)tetrahydro-3′H-spiro[cyclobutane-1,2′-pyrrolo[2,1-b][1,3]oxazol]-3′-one]	46
N#Cc1ccc(COC2CC3(C2)OC2CC[C@@H](c4cnccn4)N2C3=O)c2cccnc12 (stereo partly drawn) [Example 18.14, 5-({[(5′S)-3′-oxo-5′-(pyrazin-2-yl)tetrahydro-3′H-spiro[cyclobutane-1,2′-pyrrolo[2,1-b][1,3]oxazol]-3-yl]oxy}methyl)quinoline-8-carbonitrile]	16
Cc1cnn(-c2cnc(COC3CC4(C3)OC3CC[C@@H](c5cnccn5)N3C4=O)cn2)c1 (stereo partly drawn) [Example 18.15, (5′S)-3-{[5-(4-methyl-1H-pyrazol-1-yl)pyrazin-2-yl]methoxy}-5′-(pyrazin-2-yl)tetrahydro-3′H-spiro[cyclobutane-1,2′-pyrrolo[2,1-b][1,3]oxazol]-3′-one]	76
CSc1nnc2ccc(COC3CC4(C3)OC3CC[C@@H](c5cnccn5)N3C4=O)cn12 (stereo partly drawn) [Example 18.16, (5′S)-3-{[3-(methylsulfanyl)[1,2,4]triazolo[4,3-a]pyridin-6-yl]methoxy}-5′-(pyrazin-2-yl)tetrahydro-3′H-spiro[cyclobutane-1,2′-pyrrolo[2,1-b][1,3]oxazol]-3′-one]	349
CS(=O)(=O)c1ccc(COC2CC3(C2)OC2CC[C@@H](c4cnccn4)N2C3=O)cc1 (stereo partly drawn) [Example 18.17, (5′S)-3-{[4-(methylsulfonyl)phenyl]methoxy}-5′-(pyrazin-2-yl)tetrahydro-3′H-spiro[cyclobutane-1,2′-pyrrolo[2,1-b][1,3]oxazol]-3′-one]	145
O=C1N2C(CC[C@H]2c2cnccn2)OC12CC(OCc1csc3ncccc13)C2 (stereo partly drawn) [Example 18.18, (5′S)-5′-(pyrazin-2-yl)-3-[(thieno[2,3-b]pyridin-3-yl)methoxy]tetrahydro-3′H-spiro[cyclobutane-1,2′-pyrrolo[2,1-b][1,3]oxazol]-3′-one]	18
O=C1N2C(CC[C@H]2c2cnccn2)OC12CC(OCc1ccc3nccn3c1)C2 (stereo partly drawn) [Example 18.19, (5′S)-3-[(imidazo[1,2-a]pyridin-6-yl)methoxy]-5′-(pyrazin-2-yl)tetrahydro-3′H-spiro[cyclobutane-1,2′-pyrrolo[2,1-b][1,3]oxazol]-3′-one]	110
